We go through two compounds from US20130296393A1, “METHOD FOR CONTROLLING CLUBROOT” (ISHIHARA SANGYO KAISHA, LTD., priority 2011, published 2013).

Common to all, as to assay type: in vivo
Test [1] has as its system Plasmodiophora brassicae. As to the kind of experiment: Cabbage clubroot control test, pot test, cyazofamid vs chlorothalonil (Example 3 / Comparative Example 3). Further details: key to Disease control value: control value = (1 − treated/control severity) × 100; key to Disease severity: severity = Σ(plants × index 0-4)/(plants × 4) × 100. To be noted: for Disease control value / Disease severity: 57 days after settled planting. The source says:
(§1) Disease severity={Σ(number of each index of diseased plants×disease index)/(number of plants surveyed×4)}×100
(§2) Disease control value={1−(treatment disease severity/control disease severity)}×100
(§3) 0: No adhesion of clubroot, 1: clubroot adhesion to lateral root, 2: clubroot adhesion to the entire lateral root or clubroot adhesion to a part of tap root, 3: adhesion of large clubroot to tap root, and 4: clubroot adhesion to the entire tap root.
A spore suspension of Plasmodiophora brassicae (fungus density: 1×10^5 fungi/g dry soil) was inoculated into a sterilization soil adjusted to pH of 6.0 with Sandoseto and after introducing the resulting test soil into a 1/5000 a pot, a cabbage (variety: Okina) seedling grown in a cell seedling tray (128 cells/seedling box) was settled-planted by establishing five plantings for each test section having a size of 0.02 m^2 for one plant. Immediately, 4 days, 7 days and 14 days after settled planting, the chemical solution for spraying prepared by the same method as in Example 1(1) was drenched into the soil in a ratio of 250 ml/plant. Fifty-seven days after the settled planting, the number of each index of clubroot adhesion to the root was investigated. For comparison, the same test was carried out on a control section where a soil drench treatment with the chemical solution for spraying was not applied.
A chemical solution for spraying in a concentration of 800 ppm was prepared by diluting 40% chlorothalonil (Daconil 1000 [trade name], manufactured by SDS K.K.) with water.
The test was carried out by the same procedure as in Example 3 except that the chemical solution (cyazofamid) for spraying was replaced by the chemical solution (chlorothalonil) for spraying prepared in Comparative Example 3(1).
The disease severity and disease control value of Example 3 and Comparative Example 3 were determined by the same methods as in Example 1 and Comparative Example 1. In addition, the weight of cabbage in the aerial part was measured. Furthermore, the test result was shown by the average value of five plantings.

For test [2], the system named is Plasmodiophora brassicae. As to the kind of experiment: Influence of rainfall on clubroot control effect in cabbage (Example 4 / Comparative Example 4). The note with it: pot; for Weight in the aerial part / Disease control value / Disease severity: 0.3% dust formulation 30 kg/10 a soil incorporation just before settled planting; for Disease control value / Disease severity: 67 days after settled planting. The method, then: as §1, §2, §3
The test was carried out by the same method as in Example 3 except for preparing an area subjected to a rainfall treatment of 20 mm by means of a rainfall apparatus (a treatment at a rate of 10 mm/hour for 2 hours) the day before treatment, and an area not subjected to the rainfall treatment. Sixty-seven days after the settled planting, the number of each index of clubroot adhesion to the root was investigated. For comparison, the same test was carried out on a control section where a soil drench treatment with the chemical solution for spraying was not applied.
The test was carried out by the same method as in Example 4 except that in place of the soil drench treatment with the chemical solution for spraying, 30 kg/10 a of 0.3% flusulfamide (dust formulation of Nebijin [trade name], manufactured by Mitsui Chemicals Agro, Inc.) was applied to the test soil just before the settled planting and incorporated into the soil by means of a small mixer (interfusion depth: 15 cm).
The disease severity and disease control value of Example 4 and Comparative Example 4 were determined by the same methods as in Example 1 and Comparative Example 1. In addition, the weight of cabbage in the aerial part was measured. Furthermore, the test result was shown by the average value of five plantings.

The subject of test [3] is Plasmodiophora brassicae. In words: Cabbage clubroot control test, pot test (Example 1 / Comparative Example 1). To be noted: 0.3% dust formulation 30 kg/10 a soil incorporation just before settled planting. As to the method:
A chemical solution for spraying at 50 ppm was prepared by diluting 9.4% w/w cyazofamid (Ranman [trade name] flowable, manufactured by Ishihara Sangyo Kaisha Ltd.) with water.
A spore suspension of Plasmodiophora brassicae (fungus density: 1×10^5 fungi/g dry soil) was inoculated into a sterilization soil adjusted to pH of 6.2 with Sandoseto and after introducing the resulting test soil into a 1/5000 a pot, a cabbage (variety: Okina) seedling grown in a cell seedling tray (128 cells/seedling box) was settled-planted by establishing five plantings for each test section having a size of 0.02 m^2 per one plant. Just after the settled planting, 3 days, 7 days, 10 days and 14 days after the settled planting, the chemical solution for spraying prepared in (1) was applied by soil drench at a ratio of 250 ml/plant. Sixty days after the settled planting, the number of each index of clubroot adhesion to the root was investigated. For comparison, the same test was carried out on a control section where a soil drench treatment with the chemical solution for spraying was not applied.
The test was carried out by the same method as in Example 1(2) except that in place of the soil drench treatment with the chemical solution for spraying, 30 kg/10 a of 0.3% flusulfamide (dust formulation of Nebijin [trade name], manufactured by Mitsui Chemicals Agro, Inc.) was applied to the test soil just before settled planting and incorporated into the soil by means of a small mixer (interfusion depth: 15 cm).
In Example 1 and Comparative Example 1, the adhesion of clubroot was investigated by pulling out the root of cabbage. The adhesion of clubroot was investigated by calculating the disease severity using the following formula. In addition, the weight of cabbage in the aerial part was measured. Furthermore, the test result was shown by the average value of five plantings.
as §1, §2, §3

Where [4] appears, read: 800 ppm soil drench 250 ml/plant 4 days after settled planting.
[5] abbreviates: 800 ppm soil drench 250 ml/plant 7 days after settled planting.
Where [6] appears, read: 800 ppm soil drench 250 ml/plant 14 days after settled planting.
Setting [7] is: 800 ppm soil drench 250 ml/plant just after settled planting.
[8] abbreviates: 800 ppm soil drench after settled planting.
Setting [9] is: with rainfall treatment, dust formulation soil incorporation just before settled planting.

Regarding `N#Cc1c(Cl)c(Cl)c(Cl)c(C#N)c1Cl` [chlorothalonil], in the test on Plasmodiophora brassicae [1] (setting [4]), the “Weight in the aerial part” value stood at 92 g, the Disease control value was 25 and the Disease severity is 60. For the same compound, in the test with Plasmodiophora brassicae [1] (setting [5]), the “Weight in the aerial part” value came to 69 g, the Disease control value is reported as 0 and the Disease severity was found to be 90. In the test on Plasmodiophora brassicae [1] (setting [6]), the “Weight in the aerial part” value stood at 70 g, the Disease control value came out at 0 and the Disease severity is 90. Also, in the test on Plasmodiophora brassicae [1] (setting [7]), the “Weight in the aerial part” value is listed as 96 g, the Disease control value was found to be 56 and the Disease severity was determined as 35. In addition, in the test with Plasmodiophora brassicae [1] (setting [8]), the Control effect entry is given as “a control effect which is sufficient for practical use was not obtained” and the “Effect of the disease on weight in the aerial part” value was “greatly affected by the disease”.

On to `O=[N+]([O-])c1ccc(NS(=O)(=O)c2ccc(Cl)c(C(F)(F)F)c2)c(Cl)c1` [flusulfamide], for which, in the test with Plasmodiophora brassicae [2] (with rainfall treatment 20 mm), the “Weight in the aerial part” value is on record as 104 g, the Disease control value came to 50 and the Disease severity worked out at 35. Further, in the test with Plasmodiophora brassicae [2] (setting [9]), the Control effect result is listed as “a practical control effect was not obtained” and the “Effect of the disease on weight in the aerial part” value is reported as “greatly affected by the disease”. For the same compound, in the test with Plasmodiophora brassicae [2] (without rainfall treatment), the “Weight in the aerial part” value came out at 118 g, the Disease control value is on record as 100 and the Disease severity worked out at 0. Further, the “Weight in the aerial part” value in the test with Plasmodiophora brassicae [3] was found to be 173 g. In addition, in the test on Plasmodiophora brassicae [3] (60 days after settled planting), the Disease control value was 100 and the Disease severity was found to be 0.
